From publication PMC8879496 (Pharmaceutics, 2022)
Like-named read-outs stand apart in the source and are kept apart here.

Experiments:
[1] = Liver microsomal metabolic stability, rat; type: in vitro ADME; details: rat liver microsomes 0.5 mg protein/mL, 1 μM, 37 °C
Protocol: (§1) Liver microsome samples (0.5 mg protein/mL) from mouse, rat, and human (Corning, Glendale, AZ, USA) in PBS and the test compound (final concentration 1 μM) were mixed. Following the addition of the NADPH regenerating solution (Corning), the samples were incubated at 37 °C for 30 min. The reaction was stopped by the addition of ice-cold acetonitrile, and the samples were centrifuged at 4000 rpm for 15 min.

[2] = system: C57BL/6 mice; experiment: Five-day repeated-dose toxicity study; details: male and female mice; for clinical signs and animal death: IP 10 mg/kg, observed for 6 days; for approximately lethal dose: IP 10 mg/kg/day for 5 days
[3] = Pharmacokinetic study in mice; type: in vivo; details: for Cmax / Tmax: n = 3
Protocol: Seven-week-old male ICR mice were purchased from Nara Bio Co., Ltd. (Pyungtaek, Korea) and housed under 24 °C, 50% humidity, and 12 h day/night cycle conditions with access to standard chow and drinking water. Mice were acclimated for 1 week before the experiments. All animal procedures were approved by the KRICT Animal Care and Use Committee (ACUC approval number, DDP-7221). A total of 10 mg/kg of compound in a 5:40:55 ratio of DMSO:PEG400:DW was intraperitoneally or orally administered (n = 3). Blood samples were collected at 0.083–24 h after drug administration through the retro-orbital venous plexus and the plasma fraction was separated by centrifugation (15,000 rpm, 3 min). […] Mean plasma concentration–time data were calculated using noncompartmental methods (Phoenix WinNonlin software version 6.4; Pharsight Corporation, Mountain View, CA, USA).

[4] = target: CYP3A4 (Homo sapiens, UniProt P08684); experiment: CYP450 enzyme inhibition, CYP3A4
Sequence of CYP3A4 (P08684 whole entry): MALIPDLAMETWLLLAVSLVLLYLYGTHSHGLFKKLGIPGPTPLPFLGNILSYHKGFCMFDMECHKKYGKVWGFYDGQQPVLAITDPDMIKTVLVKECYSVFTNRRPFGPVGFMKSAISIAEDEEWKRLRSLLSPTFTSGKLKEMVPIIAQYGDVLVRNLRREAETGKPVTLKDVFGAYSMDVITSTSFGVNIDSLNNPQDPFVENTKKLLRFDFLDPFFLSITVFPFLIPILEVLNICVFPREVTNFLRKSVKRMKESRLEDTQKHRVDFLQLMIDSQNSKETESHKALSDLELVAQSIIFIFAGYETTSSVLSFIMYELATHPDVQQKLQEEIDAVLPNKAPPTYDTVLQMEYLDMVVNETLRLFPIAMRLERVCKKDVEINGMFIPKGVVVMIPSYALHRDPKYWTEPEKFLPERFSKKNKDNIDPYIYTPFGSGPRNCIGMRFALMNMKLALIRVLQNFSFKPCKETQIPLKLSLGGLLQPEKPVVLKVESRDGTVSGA

[5] = target: T1, CYP1A2 (Homo sapiens, UniProt P05177); experiment: CYP450 enzyme inhibition, CYP1A2
T1 sequence (P05177 1-516): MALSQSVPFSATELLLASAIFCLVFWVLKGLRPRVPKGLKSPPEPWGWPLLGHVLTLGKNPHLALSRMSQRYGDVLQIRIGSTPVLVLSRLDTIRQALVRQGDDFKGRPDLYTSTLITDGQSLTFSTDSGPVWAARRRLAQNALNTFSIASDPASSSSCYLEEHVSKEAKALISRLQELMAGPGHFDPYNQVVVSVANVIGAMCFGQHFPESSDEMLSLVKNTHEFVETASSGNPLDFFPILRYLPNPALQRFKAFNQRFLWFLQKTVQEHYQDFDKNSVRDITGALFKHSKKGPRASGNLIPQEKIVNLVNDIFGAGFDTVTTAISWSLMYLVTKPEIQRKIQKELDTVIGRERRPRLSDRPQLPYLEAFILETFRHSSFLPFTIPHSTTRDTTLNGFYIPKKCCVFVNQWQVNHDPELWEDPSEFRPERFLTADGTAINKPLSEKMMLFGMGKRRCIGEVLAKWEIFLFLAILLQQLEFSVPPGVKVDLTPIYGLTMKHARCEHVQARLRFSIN

[6] = system: NA of H5N1 influenza virus; details: cited from earlier work
[7] = target: SARS-CoV-2 Mpro (Severe acute respiratory syndrome coronavirus 2, UniProt P0DTD1); experiment: SARS-CoV-2 Mpro activity assay (assay kit, fluorescence); type: biochemical
Protocol: SARS-CoV-2 Mpro activity was measured using the SARS-CoV-2 Mpro assay kit (BPS Bioscience, San Diego, CA, USA) according to the manufacturer’s instructions. The samples were evaluated in duplicated, serially diluted concentrations. The fluorescence intensity of low binding, black, 96-well microtiter plates was detected at an excitation wavelength of 360 nm and an emission wavelength of 460 nm using a microplate spectrophotometer (Bio-Tek, Winooski, VT, USA).

[8] = Plasma stability, rat; type: in vitro ADME; details: 37 °C
Protocol: (§2) Animal plasma (Innovative Research, Inc., Novi, MI, USA) and test compounds (5 μM) were incubated at 37 °C for 4 h. To prevent the reaction, cold acetonitrile was added.

[9] = target: CYP2C19 (Homo sapiens, UniProt P33261); experiment: CYP450 enzyme inhibition, CYP2C19
Sequence of CYP2C19 (P33261 whole entry): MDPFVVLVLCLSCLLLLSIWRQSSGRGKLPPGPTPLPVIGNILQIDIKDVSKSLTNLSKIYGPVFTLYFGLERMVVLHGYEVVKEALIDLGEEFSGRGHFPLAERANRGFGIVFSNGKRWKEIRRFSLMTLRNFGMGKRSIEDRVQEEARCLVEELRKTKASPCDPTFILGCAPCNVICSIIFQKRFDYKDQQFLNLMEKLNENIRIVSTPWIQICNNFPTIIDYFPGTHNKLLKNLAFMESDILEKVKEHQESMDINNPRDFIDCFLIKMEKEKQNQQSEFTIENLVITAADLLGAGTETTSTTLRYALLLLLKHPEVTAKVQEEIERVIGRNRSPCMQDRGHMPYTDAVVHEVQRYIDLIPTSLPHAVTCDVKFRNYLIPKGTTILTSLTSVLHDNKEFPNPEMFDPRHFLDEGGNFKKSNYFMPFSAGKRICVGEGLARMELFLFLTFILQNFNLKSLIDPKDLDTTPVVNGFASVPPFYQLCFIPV

[10] = system: SARS-CoV-2; experiment: microbe, parasite or virus in culture; type: cell-based; details: Severe acute respiratory syndrome coronavirus 2, Vero, 24 h; read-out: IC50, SARS-CoV-2 inhibition
[11] = system: influenza virus; details: read-out: IC50, anti-influenza virus activity; cited from earlier work
[12] = Liver microsomal metabolic stability, mouse; type: in vitro ADME; details: mouse liver microsomes 0.5 mg protein/mL, 1 μM, 37 °C
Protocol: as §1

[13] = system: SARS-CoV; experiment: microbe, parasite or virus in culture; type: cell-based; details: Severe acute respiratory syndrome coronavirus, Vero, 24 h, read-out: IC50, SARS-CoV inhibition
[14] = system: MERS-CoV; experiment: microbe, parasite or virus in culture; type: cell-based; details: Middle East respiratory syndrome-related coronavirus, Vero, 24 h, read-out: IC50, MERS-CoV inhibition, Vero cells, 0.0625 MOI, 24 h post-infection, spike staining
[15] = Plasma stability, human; type: in vitro ADME; details: 37 °C, read-out: Plasma Stability (% Remaining), Hum
Protocol: as §2

[16] = target: CYP2C9 (Homo sapiens, UniProt P11712); experiment: CYP450 enzyme inhibition, CYP2C9
Sequence of CYP2C9 (P11712 whole entry): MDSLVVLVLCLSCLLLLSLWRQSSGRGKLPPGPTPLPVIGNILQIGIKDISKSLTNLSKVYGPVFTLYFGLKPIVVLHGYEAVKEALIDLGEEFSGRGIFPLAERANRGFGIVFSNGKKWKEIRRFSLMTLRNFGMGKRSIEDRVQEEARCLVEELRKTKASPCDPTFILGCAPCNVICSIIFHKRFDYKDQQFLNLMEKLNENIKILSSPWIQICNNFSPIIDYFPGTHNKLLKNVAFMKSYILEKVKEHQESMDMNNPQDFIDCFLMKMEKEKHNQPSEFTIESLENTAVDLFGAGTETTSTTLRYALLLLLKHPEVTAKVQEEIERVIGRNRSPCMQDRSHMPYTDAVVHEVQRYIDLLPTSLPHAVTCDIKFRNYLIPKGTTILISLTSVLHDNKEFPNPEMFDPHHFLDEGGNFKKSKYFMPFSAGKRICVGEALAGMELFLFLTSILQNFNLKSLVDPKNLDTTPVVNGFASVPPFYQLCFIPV

[17] = target: CYP2D6 (Homo sapiens, UniProt P10635); experiment: CYP450 enzyme inhibition, CYP2D6
Sequence of CYP2D6 (P10635 whole entry): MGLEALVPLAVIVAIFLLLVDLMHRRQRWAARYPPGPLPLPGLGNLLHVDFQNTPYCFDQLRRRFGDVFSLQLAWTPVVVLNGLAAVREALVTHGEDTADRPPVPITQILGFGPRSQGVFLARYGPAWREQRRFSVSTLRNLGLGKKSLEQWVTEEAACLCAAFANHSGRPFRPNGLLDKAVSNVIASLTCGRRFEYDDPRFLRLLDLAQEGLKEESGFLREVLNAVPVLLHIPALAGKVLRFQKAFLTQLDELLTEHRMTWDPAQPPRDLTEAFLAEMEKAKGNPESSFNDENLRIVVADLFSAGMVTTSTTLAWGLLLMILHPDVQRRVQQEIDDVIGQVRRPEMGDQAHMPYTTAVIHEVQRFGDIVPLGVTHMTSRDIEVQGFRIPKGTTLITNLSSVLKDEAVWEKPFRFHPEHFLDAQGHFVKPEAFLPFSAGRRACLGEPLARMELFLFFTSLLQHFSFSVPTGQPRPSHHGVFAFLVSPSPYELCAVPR

[18] = target: hERG K+ channel (Homo sapiens, UniProt Q12809); experiment: hERG K+ channel automated planar patch clamp assay
Sequence of hERG K+ channel (Q12809 whole entry): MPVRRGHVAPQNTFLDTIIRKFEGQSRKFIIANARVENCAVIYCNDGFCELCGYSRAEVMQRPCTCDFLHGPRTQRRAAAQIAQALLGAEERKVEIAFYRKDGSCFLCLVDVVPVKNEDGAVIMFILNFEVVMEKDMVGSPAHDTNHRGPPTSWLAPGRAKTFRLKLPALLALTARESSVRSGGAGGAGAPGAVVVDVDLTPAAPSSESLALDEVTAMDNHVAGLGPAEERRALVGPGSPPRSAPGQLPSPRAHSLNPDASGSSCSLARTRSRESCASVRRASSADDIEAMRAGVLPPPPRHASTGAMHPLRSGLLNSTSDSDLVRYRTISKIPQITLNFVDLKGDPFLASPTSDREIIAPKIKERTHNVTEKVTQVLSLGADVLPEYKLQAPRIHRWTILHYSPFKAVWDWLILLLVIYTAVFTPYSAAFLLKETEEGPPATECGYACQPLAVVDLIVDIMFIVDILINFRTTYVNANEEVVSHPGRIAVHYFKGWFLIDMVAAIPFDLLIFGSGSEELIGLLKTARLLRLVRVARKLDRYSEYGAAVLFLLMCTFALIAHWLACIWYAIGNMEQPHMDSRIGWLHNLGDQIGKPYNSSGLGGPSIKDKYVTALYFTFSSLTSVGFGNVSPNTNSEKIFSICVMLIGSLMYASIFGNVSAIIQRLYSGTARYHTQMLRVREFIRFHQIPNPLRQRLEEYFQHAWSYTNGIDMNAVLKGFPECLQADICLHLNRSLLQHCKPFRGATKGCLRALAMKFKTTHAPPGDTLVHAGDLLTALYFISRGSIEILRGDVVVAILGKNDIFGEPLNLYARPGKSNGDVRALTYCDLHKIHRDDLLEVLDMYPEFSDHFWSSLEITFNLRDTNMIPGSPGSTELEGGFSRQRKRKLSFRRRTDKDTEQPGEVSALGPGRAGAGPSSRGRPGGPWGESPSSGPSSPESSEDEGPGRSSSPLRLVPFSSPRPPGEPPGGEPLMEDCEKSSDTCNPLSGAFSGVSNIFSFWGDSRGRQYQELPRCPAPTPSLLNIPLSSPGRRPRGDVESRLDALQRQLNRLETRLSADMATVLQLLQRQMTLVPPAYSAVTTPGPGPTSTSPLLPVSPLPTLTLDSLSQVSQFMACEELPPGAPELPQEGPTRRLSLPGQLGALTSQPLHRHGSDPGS

[19] = Liver microsomal metabolic stability, human; type: in vitro ADME; details: human liver microsomes 0.5 mg protein/mL, 1 μM, 37 °C
Protocol: as §1

[20] = in vitro; details: African green monkey
[21] = male, ICR, mouse, plasma, IP 10 mg/kg
[22] = male, ICR, mouse, plasma, PO 10 mg/kg

CCCC(=O)c1c(O)c(CC2=C(O)C(C)(C)C(O)=C(C(C)=O)C2=O)c(O)c(Cc2c(O)c(CC3=C(O)C(C)(C)C(O)=C(C(C)=O)C3=O)c(O)c(C(=O)CCC)c2O)c1O [dryocrassin ABBA, Dryocrassin ABBA]
MS (%) (Remaining after 30 min), Rat [1]: >99% | clinical signs and animal death [2]: No abnormal clinical signs and animal death | approximately lethal dose [2]: > 10 mg/kg | AUC ([3]; IP 10 mg/kg, n = 3, 10 mg/kg): 65960 ± 8630 ng·h/mL | Cmax [3, 21]: 12800 ± 1790 ng/mL | Tmax [3, 21]: 1.17 ± 0.76 h | half-life ([3]; male, ICR, mouse, plasma, IP 10 mg/kg, n = 3, read-out: T1/2 (converted)): 5.5 ± 0.56 h | Cmax [3, 22]: 3640 ± 570 ng/mL | Tmax [3, 22]: 0.67 ± 0.29 h | half-life ([3]; male, ICR, mouse, plasma, PO 10 mg/kg, n = 3, read-out: T1/2 (converted)): 12.6 ± 3.76 h | AUC ([3]; male, ICR, mouse, plasma, ip, 10 mg/kg, IP 10 mg/kg, n = 3, read-out: AUC): 65000 ng·h/mL | AUC ([3]; male, ICR, mouse, plasma, other: intraperitoneal and oral (range over both arms), 10 mg/kg, in vivo, span over IP and PO 10 mg/kg (abstract), read-out: plasma exposure (AUC)): 19300 to 65000 ng·h/mL | half-life ([3]; male, ICR, mouse, plasma, other: intraperitoneal and oral (range over both arms), in vivo, span over IP and PO 10 mg/kg (abstract), read-out: half-life): 5.5 to 12.6 h | AUC ([3]; male, ICR, mouse, plasma, po, 10 mg/kg, PO 10 mg/kg, n = 3, read-out: AUC): 19300 ± 1420 ng·h/mL | IC50 [4]: 8.33 µM | IC50 [5]: 14.7 µM | IC50 [6]: 18.6 ± 4.53 µM | IC50 [7]: 46.5 ± 1.1 µM | remaining at 4 h, 5 μM [8]: 67 ± 7.29% | IC50 [9]: 16.1 µM | IC50 [10]: 22.4 ± 0.73 µM | IC50 [11]: 16.5 µM | MS (%) (Remaining after 30 min), Mice [12]: 68.3 ± 2.1% | IC50 [13]: 0.8 ± 0.07 µM | IC50 [14]: 1.31 ± 0.07 µM | remaining at 4 h, 5 μM [15]: 29.7 ± 8.37% | IC50 [16]: 0.4 µM | IC50 [17]: 13.5 µM | inhibition at 10 µM [18]: 7.27% | MS (%) (Remaining after 30 min), Hum [19]: >99% | CC50 [20]: > 50 µM

CCCC(=O)c1c(O)c(CC2=C(O)C(C)(C)C(O)=C(C(C)=O)C2=O)c(O)c(CC2=C(O)C(C)(C)C(O)=C(C(C)=O)C2=O)c1O [filixic acid ABA]
clinical signs and animal death [2]: No abnormal clinical signs and animal death | approximately lethal dose [2]: > 10 mg/kg | IC50 [6]: 29.6 ± 2.48 µM | IC50 ([7]; serially diluted compounds 3.125–100 μM, mean ± SEM, read-out: IC50, SARS-CoV-2 Mpro (3CL) activity): 39.6 ± 1.09 µM | IC50 [10]: 25.9 ± 0.81 µM | IC50 [13]: 4.56 ± 0.21 µM | IC50 [14]: 2.68 ± 0.1 µM | CC50 [20]: > 50 µM
